The values below are quoted from earlier work in patent US5834196A, “Method for detecting and/or optionally quantifying and/or separating apoptotic cells in or from a sample” (Nexins Research B.V., priority 1994, dated 1998).

This series concerns the target annexin V. The conditions noted are these: phosphatidyl serine containing membranes; Ca^2+ dependent binding; given as an estimation.

A value given as a limit tells only on which side of the number the result lay.

With phosphatidyl serine, the Kd is less than 0.1 nM.

The Kd is the constant that tells how readily two partners part at equilibrium.
